Structures are written as SMILES. Read-outs that look alike come from different tables or passages of the source.

What all share (test): Post-emergence foliage spray, pot culture, fresh weight inhibition (Tables 1-48, 51-98, 101-148; 24 days)
Common to all, as to assay type: in vivo

For one experiment, the system named is Echinochloa caudate. The following applies: Echinochloa, 576 h, read-out: Control effect (%) of B applied alone in corresponding dose. On the procedure: (§1) The above weeds were cultivated by a pot culture method. […] Full and uniform weed seeds were selected, soaked in warm water at 25° C. for 6 hours, and germinated in a 28° C. biochemical incubator (darkness). The weed seeds that had just germinatedwere evenly placed on the surface of the soil and then covered with 0.5-1 cm soil according to the sizes of seeds.
(§2) The technical materials were all dissolved in acetone, and diluted with an aqueous solution containing 0.1% emulsifier Tween-80. The dilution is performed as required.
(§3) A ratio of the active ingredient A to the active ingredient B and amounts thereof in each group depends on the characteristics and toxicity of the two agents, as well as the main application purpose of a corresponding formulation. Based on the pre-tests in this study, the dosage of the active ingredient A and B applied alone and in combination were shown in the tables. Water containing the solvent and emulsifier same with the above groups but free of the agents was used as a blank control.
(§4) In the stage of weeds with 3˜4 leaves, the weeds were thinned out to maintain 15 weeds per pot and 45 weeds for each treatment, then continued to be cultured to 5˜6 leaves stage of grassy weeds, 6˜7 leaves stage of broadleaf weeds, and treated.
(§5) The well-cultured weeds were evenly placed on a platform with an area of 0.5 m^2, and a solution of agents was sprayed on the stems and leaves thereof by the 3WP-2000-type walking spray tower at a dosage of 450 kg/ha and at a spray pressure of 0.3 MPa. After all the solution was sprayed, the valve was closed. After 30 seconds, the door of the spray tower was opened, and the nutritional bowl was taken out. Then the valve was opened, and the spray tube was cleaned by spraying 50 ml of water.
(§6) A pot-culture method was employed. For the cultivation of weeds, please refer to the Section 1.1), and “Pesticide guidelines for laboratory bioactivity tests—herbicides”. As to a method for applying agents, please refer to the section 2.3.2), that is, a foliage treatment was employed. After the treatment, the weeds were routinely cultured in a greenhouse.
(§7) A method for investigating absolute number was employed, wherein whole seedlings of survival weeds were cut off with a blade along the soil surface, and the fresh weight of the weeds was weighed with an analytical balance. For dead weeds, the fresh weight thereof was zero.
(§8) Wherein, in the formula, X represented the fresh weight inhibition rate of the active ingredient A in a dosage of P, and Y represented the fresh weight inhibition rate of the active ingredient B in a dosage of Q.

For experiment [1], the system named is Echinochloa crusgalli var. zelayensis. As to conditions: Echinochloa crus-galli, foliar, 576 h, foliage spray, 24 days, read-out: Control effect (%) of B applied alone in corresponding dose; for pest or weed control at 3.75 g/ha: B 3.75 g a.i./ha; for pest or weed control at 7.5 g/ha: B 7.5 g a.i./ha; for pest or weed control at 15 g/ha: B 15 g a.i./ha; for pest or weed control at 30 g/ha: B 30 g a.i./ha. On the procedure: as §1, §2, §3, §4, §5, §6, §7, §8

The test system of another experiment is Echinochloa oryzoides. The following applies: Echinochloa oryzoides, 576 h, read-out: Control effect (%) of B applied alone in corresponding dose; for pest or weed control at 3.75 g/ha: 3.75 g a.i./ha; for pest or weed control at 7.5 g/ha: 7.5 g a.i./ha; for pest or weed control at 15 g/ha: 15 g a.i./ha; for pest or weed control at 30 g/ha: 30 g a.i./ha. On the procedure:
as §1, §2, §3, §4, §5, §6, §7, §8

As for `COc1cc(OC)nc(Oc2cccc(Oc3nc(OC)cc(OC)n3)c2C(=O)O)n1` [bispyribac-sodium], the pest or weed control at 1.875 g/ha in the experiment with Echinochloa caudate (bispyribac-sodium 1.875 g a.i./ha) amounted to 5.5%; in experiment [1] (B 1.875 g a.i./ha), 5.3%; with Echinochloa oryzoides (Table 102, 1.875 g a.i./ha), 4.7%. Also, the pest or weed control at 3.75 g/ha in the experiment with Echinochloa caudate (bispyribac-sodium 3.75 g a.i./ha) is 16%; in experiment [1], 17.4%; in the experiment with Echinochloa oryzoides (Table 102), 18.2%. In addition, the figures for the pest or weed control at 7.5 g/ha (with Echinochloa caudate (bispyribac-sodium 7.5 g a.i./ha); in experiment [1]; in the experiment with Echinochloa oryzoides (Table 102)) were 44.9%, 43.4% and 44.1%, respectively. Moreover, the pest or weed control at 15 g/ha was 62.1% in the experiment with Echinochloa caudate (bispyribac-sodium 15 g a.i./ha), 62.9% in experiment [1] and 62% in the experiment with Echinochloa oryzoides (Table 102).
In the case of `COCc1cnc(C2=NC(C)(C(C)C)C(=O)N2)c(C(=O)O)c1` (stereo not drawn) [imazamox], the pest or weed control at 3.75 g/ha in the experiment on Echinochloa caudate (imazamox 3.75 g a.i./ha) was 7.6%; in experiment [1] it was 6.9%; in the experiment with Echinochloa oryzoides (Table 109), 4%. Moreover, the pest or weed control at 7.5 g/ha in the experiment on Echinochloa caudate (imazamox 7.5 g a.i./ha) came to 16.5%; in experiment [1], 14.2%; in the experiment on Echinochloa oryzoides (Table 109) it was 12.6%. Besides, the pest or weed control at 15 g/ha was 24.8% in the experiment on Echinochloa caudate (imazamox 15 g a.i./ha), 25.1% in experiment [1] and 27.6% in the experiment with Echinochloa oryzoides (Table 109). The pest or weed control at 30 g/ha in the experiment with Echinochloa caudate (imazamox 30 g a.i./ha) amounted to 53.8%; in experiment [1], 54.8%; in the experiment with Echinochloa oryzoides (Table 109), 54.4%.
With `Cc1cnc(C2=NC(=O)C(C)(C(C)C)N2)c(C(=O)O)c1` (stereo not drawn) [imazapic], the pest or weed control at 9.375 g/ha in the experiment with Echinochloa caudate (imazapic 9.375 g a.i./ha) was 6.8%; in experiment [1] (B 9.375 g a.i./ha), 1.2%; in the experiment with Echinochloa oryzoides (Table 108, 9.375 g a.i./ha), 4%. Further, the pest or weed control at 18.75 g/ha in the experiment with Echinochloa caudate (imazapic 18.75 g a.i./ha) was 21.5%; in experiment [1] (B 18.75 g a.i./ha) it was 18.6%; in the experiment with Echinochloa oryzoides (Table 108, 18.75 g a.i./ha), 21.3%. In addition, the pest or weed control at 37.5 g/ha was found to be 28.6% with Echinochloa caudate (imazapic 37.5 g a.i./ha); 26.9% in experiment [1] (B 37.5 g a.i./ha); 30.4% in the experiment on Echinochloa oryzoides (Table 108, 37.5 g a.i./ha). The pest or weed control at 75 g/ha came out at 55.6% in the experiment on Echinochloa caudate (imazapic 75 g a.i./ha); 57% in experiment [1] (B 75 g a.i./ha); 59.7% in the experiment on Echinochloa oryzoides (Table 108, 75 g a.i./ha).
`CCc1cnc(C2=NC(C)(C(C)C)C(=O)N2)c(C(=O)O)c1` (stereo not drawn) [imazethapyr]: the pest or weed control at 7.5 g/ha in the experiment with Echinochloa caudate (imazethapyr 7.5 g a.i./ha) was 4.2%; in experiment [1] it was 3.2%; with Echinochloa oryzoides (Table 107), 6.7%. Moreover, the pest or weed control at 15 g/ha was 18.1% in the experiment with Echinochloa caudate (imazethapyr 15 g a.i./ha), 19.8% in experiment [1] and 17.8% in the experiment on Echinochloa oryzoides (Table 107). For the same compound, the pest or weed control at 30 g/ha with Echinochloa caudate (imazethapyr 30 g a.i./ha) worked out at 34.8%; in experiment [1] it was 31.2%; with Echinochloa oryzoides (Table 107) it was 34.6%. In addition, the pest or weed control at 60 g/ha with Echinochloa caudate (imazethapyr 60 g a.i./ha) is 55.6%; in experiment [1] (B 60 g a.i./ha), 59.2%; in the experiment on Echinochloa oryzoides (Table 107, 60 g a.i./ha) it was 58.2%.
As for `COc1cc(OC)nc(NC(=O)NS(=O)(=O)c2ncccc2C(=O)N(C)C)n1` [nicosulfuron], the pest or weed control at 3.75 g/ha in the experiment with Echinochloa caudate (nicosulfuron 3.75 g a.i./ha) was 3.8%; in experiment [1], 7.3%; in the experiment with Echinochloa oryzoides (Table 104), 9.9%. Besides, the pest or weed control at 7.5 g/ha is 14.3% with Echinochloa caudate (nicosulfuron 7.5 g a.i./ha), 15.4% in experiment [1] and 18.2% in the experiment with Echinochloa oryzoides (Table 104). Also, the pest or weed control at 15 g/ha in the experiment with Echinochloa caudate (nicosulfuron 15 g a.i./ha) was found to be 40.2%; in experiment [1], 39.3%; in the experiment on Echinochloa oryzoides (Table 104) it was 40.5%. Also, the pest or weed control at 30 g/ha came out at 58.5% in the experiment on Echinochloa caudate (nicosulfuron 30 g a.i./ha), 58.7% in experiment [1] and 62.4% in the experiment on Echinochloa oryzoides (Table 104).
